Assay results published in a melting point compilation (Tetko et al.; mined from patent text by program, amines drawn as free bases though some values may be those of a salt).

Work on `Cc1cccc(C(=O)NN=Cc2ccc3ccccc3n2)c1` yielded a melting point of 188 °C.
Work on `COC(=O)c1cc(-c2ccc(SC)cc2)nn(CC(C)C)c1=O` yielded a melting point of 90.4 to 91.4 °C.
In the case of `CN(C)c1cc2nc(C(C)(C)C)sc2cc1NC(N)=S`, the melting point is reported as 275 to 280 °C.
`CC(=O)C(CCCc1ccccc1)n1ncc2c(=O)[nH]c(Cc3ccc(-c4cccnc4)cc3)nc21` (centres undefined) showed a melting point of 108 °C.
For `CC(C)C(NC(=O)OC(C)(C)C)C(=O)NC(C(=O)OC1CC(n2cc(C=CBr)c(=O)[nH]c2=O)OC1CN=[N+]=[N-])C(C)C` (centres undefined), the melting point was 133 to 135 °C.
`Nc1ccc(Cc2ccccc2)cn1` gave a melting point of 79 to 80 °C.
`CCCCCCCCCCCCCCOc1ccc(CBr)cc1CBr` gave a melting point of 62.9 °C.
Work on `O=CNc1ccccc1CCO` yielded a melting point of 49 to 54 °C.
`O=C(CCCN1CCC2(CC1)OC(c1ccccc1)c1ccccc12)c1ccc(F)cc1` (centres undefined) showed a melting point of 137 to 138 °C.
Compound `Cc1ccc(Sc2nc(C(N)=O)nc3c(C)csc23)cc1` has a melting point of 243 to 246 °C.
`CC(C)CC(=O)c1ccc(Cl)cc1` showed a melting point of 39 to 40 °C.
Work on `COC(=O)CCC(=O)c1ccc(-c2ccc(OC)cc2)cc1` yielded a melting point of 96 to 100 °C.
`CC(C)(C)c1ccc(C#N)cc1[N+](=O)[O-]` gave a melting point of 70.5 to 71.5 °C.
Compound `Cc1ccc(=O)n(-c2cc(F)c(C#N)cc2F)n1` has a melting point of 159 °C.
`C=CC(=O)N1C(C)(C)CC(=C2CC(C)(C)N(C(=O)C=C)C(C)(C)C2)CC1(C)C` showed a melting point of 196 to 198 °C.
Work on `CN(CCOc1cn(-c2ccc(F)cc2)c2cc(Cl)ccc12)CCN1CCNC1=O` yielded a melting point of 100 to 102 °C.
`O=C(O)C1CCOc2c(Cl)cc(-c3ccccc3)cc21` (centres undefined) gave a melting point of 187 to 188 °C.
With `CCCc1c(OCCCCOc2ccc(C(=O)c3cccc(C(=O)O)c3)cc2CCC(=O)O)ccc2c1OCCC2=O` the melting point was 177 to 180 °C.
For `COc1ccc2c(c1)c(C(C)C(=O)O)cc(=O)n2-c1ccc(Cl)cc1` (centres undefined), the melting point was 177 to 178 °C.
Compound `Cn1c(COc2ccc(CC3SC(=O)NC3=O)cc2)nc2cnccc21` (centres undefined) has a melting point of 264 to 265 °C.
In the case of `CC(COc1ccc(CC2SC(=O)NC2=O)cc1)C1CC(COc2ccccc2)OC1=S` (centres undefined), the melting point is reported as 53 to 58 °C.
Work on `CNCc1ccc(CSCCNC2=NS(=O)(=O)N=C2NC)o1` yielded a melting point of 50 to 56 °C.
With `C[C@H](OC(=O)NCCC(F)(F)C(F)(F)F)C(=O)N[C@@H]1C(=O)N(CCO)c2ccccc2-c2ccccc21` the melting point was 181 to 184 °C.
Compound `CCOC(CNC(=C[N+](=O)[O-])SC)OCC` has a melting point of 73 to 73.5 °C.
For `Cn1c(=O)c(-c2c(Cl)cccc2Cl)cc2cnc(Nc3ccc(CC(=O)O)cc3)nc21`, the melting point was 286 to 290 °C.
For `NC(=O)N1C(=O)C(C(=O)c2cccs2)c2ccncc21` (centres undefined), the melting point was 213 to 215 °C.
With `CCn1cnc2c(Nc3cccc(F)c3)nc(Cl)nc21` the melting point was 136 °C.
Work on `Cn1cccc1CCNc1nc(-c2cccnc2)nc2ccccc12` yielded a melting point of 140 to 142 °C.
`Nc1ccc(C(=O)c2cccnc2)cc1` showed a melting point of 107 °C.
Compound `c1ccc2c(c1)CCc1c-2noc1N1CCCNCC1` has a melting point of 79 to 81 °C.
`CC1(C)CC(=O)C2=C(C1)NC1=C(C(=O)CC(C)(C)C1)C2c1c(F)cc(F)cc1F` showed a melting point greater than 300 °C.
In the case of `CCOC(=O)c1c(C)cc2c(c1C)c(=O)n(-c1ccccc1C(F)(F)F)c(=O)n2CCN1CCCCC1`, the melting point is reported as 144 to 145 °C.
With `CCOC(=O)C(=O)Nc1cc(NC(C)=O)ccc1O` the melting point was greater than 300 °C.
`O=C(Nc1cccnc1)N1CCN(c2nccc(-c3cc(F)ccc3F)n2)CC1` showed a melting point of 270 to 271 °C.
In the case of `Cn1c2c(ccc1=O)C(NCCc1ccc([N+](=O)[O-])cc1)CCC2` (centres undefined), the melting point is reported as 138 to 139 °C.
`COc1ccc(C(OCC2OC(n3cnc4c(=O)[nH]c(NC(=O)Cc5ccc(Br)cc5)nc43)CC2O)(c2ccccc2)c2ccc(OC)cc2)cc1` (centres undefined) showed a melting point of 150 to 155 °C.
In the case of `CCCC(=N)Nc1ccccc1N1CCOCC1`, the melting point is reported as 131 °C.
In the case of `COc1ccc(C(=O)COC(C)=O)cc1OC`, the melting point is reported as 82 to 84 °C.
For `CSc1ccc(-c2ccccc2)c(NC(N)=S)c1`, the melting point was 166 to 167 °C.
With `CC1(C)CC(C)(O)C2CCC2(C)C1` (centres undefined) the melting point was 54 to 55 °C.
Compound `Cc1c(-c2ccccc2)oc2c(CCl)cccc2c1=O` has a melting point of 112 to 113 °C.
Work on `CCOC(=O)C(C)OCc1cc2nc(C(F)(F)F)ccc2n1S(=O)(=O)c1ccc2ncsc2c1` (centres undefined) yielded a melting point of 96 °C.
With `O[C@@H]1CNCC[C@H]1Oc1ccc(F)cc1` (relative stereo) the melting point was 121 to 123 °C.
For `COc1ccc(C(=O)c2ccc(OC)cc2F)c(C)c1`, the melting point was 88 to 90 °C.
In the case of `COCc1cc2c(C(=O)Nc3c(C)noc3C)ccc(OC)c2o1`, the melting point is reported as 168 to 170 °C.
In the case of `COc1cc(OC)c(OC)c(OC)c1OC`, the melting point is reported as 59 to 61 °C.
In the case of `Cc1nc2c(O)cccn2c(=O)c1CCN1CCC(c2noc3cc(F)ccc23)CC1`, the melting point is reported as 288 °C.
With `Cc1cc(-c2nc3cc4c(cc3[nH]2)C(C)(C)CC(=O)N4)[nH]n1` the melting point was 242 to 245 °C.
With `O=C(O)c1ccc(N2CC(=O)N(S(=O)(=O)c3ccc(Cl)cc3)C2=O)cc1` the melting point was 271 to 272 °C.
With `CC1(CCN2CCN(C(C)(C)C)C(=O)C2)Cn2cc([N+](=O)[O-])nc2O1` (centres undefined) the melting point was 153 to 154 °C.
`Cc1cccc(NC(=O)NCC(=O)N(CC(=O)OCC(F)(F)F)c2ccccc2)c1` showed a melting point of 172 °C.
Work on `CCOC(=O)c1cn(C2CN(C(c3ccccc3)c3ccccc3)C2)c2cc(F)c(F)cc2c1=O` yielded a melting point of 196 to 201 °C.
`CCn1c2ccc(C(=O)c3ccc(-n4c5ccccc5c5ccccc54)cc3)cc2c2cc(C(C)=NO)ccc21` gave a melting point of 151 to 154 °C.
For `CC(=O)NC1C(NC(=N)N)C=C(C(=O)O)OC1C(OC(=O)NCCCO)C(O)CO` (centres undefined), the melting point was 265 to 267 °C.
`Cc1cccc(Cl)c1NS(=O)(=O)c1nc2sccn2n1` showed a melting point of 91 to 93 °C.
In the case of `CC(c1ccc(OCc2ccc(Cl)cc2Cl)cc1)n1ccnc1` (centres undefined), the melting point is reported as 103 to 106 °C.
`CS(=O)(=O)c1ccc(-c2sc(-c3ccccc3Cl)nc2-c2cccs2)cc1` gave a melting point of 171 to 174 °C.
Work on `CN(C)c1ccc2c(c1)NC(=O)CC2` yielded a melting point of 154 to 156 °C.
`CSc1c2c3c(cccc3n1C)C1C=C(C)CN(C)C1C2` (centres undefined) showed a melting point of 115 to 116 °C.
`O=C1Nc2cc(Cl)ccc2C(=O)C1c1ccsc1` (centres undefined) showed a melting point of 341 to 344 °C.
Work on `CNc1cc(C(F)(F)F)no1` yielded a melting point of 48.5 to 50 °C.
`O=C1c2c(Sc3ccccc3)ccc(Sc3ccc(O)cc3)c2C(=O)c2c(Sc3ccccc3)ccc(Sc3ccc(O)cc3)c21` showed a melting point greater than 340 °C.
Compound `FC(F)C(F)(F)Oc1cccc(Nc2nccc(-c3cncc4ccccc34)n2)c1` has a melting point of 158 to 160 °C.
In the case of `COc1ccc(NC(=O)CCCCCC(C)=O)cc1`, the melting point is reported as 106 to 107 °C.
Compound `COc1cc(/C=C2\C(=O)NC(=O)\C2=C\c2ccccc2)ccc1OC1CCCC1` has a melting point of 203 to 204 °C.
In the case of `COC(=O)c1ccc(C(=O)N(C)C)cc1`, the melting point is reported as 107 °C.
Work on `COC(=O)N1CCC(Nc2nc3ccccc3n2Cc2ccc(F)cc2)C(C)C1` (centres undefined) yielded a melting point of 172 °C.
For `CC1(C)Oc2ccc(C#N)cc2C(OC2=CC(=O)CC2)C1(C)O` (centres undefined), the melting point was 204 to 206 °C.
For `O=Cc1cccc(-c2cc(-c3ccc(C(F)(F)F)cc3)no2)c1`, the melting point was 151 to 152 °C.
With `Cc1ccc2oc3ccc(C)cc3c2c1` the melting point was 62 to 64 °C.
With `Cc1ccc(C(=O)Nc2nc(-c3ccccc3)c(-c3nc4ccccc4c(=O)n3-c3ccccc3)s2)cc1` the melting point was greater than 275 °C.
In the case of `Cc1nc(OC(C)C)c([N+](=O)[O-])c(N2CCN(c3ccc(F)cc3)CC2)n1`, the melting point is reported as 98 to 100 °C.
Work on `CCOC(=O)c1nc(NC)sc1-c1nc2ccccn2c1C` yielded a melting point of 183 to 185 °C.
`C[C@H]([C@H](O)c1ccc(O)c(O)c1)N1CCC(O)(c2ccccc2)CC1` (relative stereo) gave a melting point of 167 to 168 °C.
With `CC#CC(C)(C)NC(=O)C(CC)Oc1cc(C#N)cc(OC)c1` (centres undefined) the melting point was 97 to 98 °C.
Compound `O=C(CCCC(Cc1c[nH]c2ccccc12)(NC(=O)OC1C2CC3CC(C2)CC1C3)C(=O)NCCc1ccccc1)OCc1ccccc1` (centres undefined) has a melting point of 115 to 136 °C.
In the case of `OCCN1CCC(Nc2nc3cncnc3n2Cc2ccc(F)cc2)CC1`, the melting point is reported as 159 °C.
With `O=C(O)c1cccc(Oc2cccc(-c3nn(Cc4ccc(C(F)(F)P(=O)(O)O)c(Cl)c4)c(=Nc4ccc(Cl)c(Cl)c4)s3)c2)c1` the melting point was 212 to 215 °C.
Compound `COc1ccc(CNC(=O)[C@@H](NC(=O)[C@H](NCc2ccc(OC)c(OC)c2)[C@H](O)[C@H](Cc2ccccc2)NC(=O)OC(C)(C)C)C(C)C)c(O)c1` has a melting point of 144 °C.
Compound `CNC(=O)Oc1ccc(SC)c2c1CCCC2` has a melting point of 146 to 147 °C.
`CCCC1=C(C#N)C(c2ccccc2Cl)c2c(n[nH]c2-c2cccc3ccccc23)N1` (centres undefined) gave a melting point of 254 °C.
For `Oc1ccc2c(c1)Cc1c-2cc2ccc(O)cc2c1C=C(F)F`, the melting point was 211 to 212 °C.
`CC(C)(C)OC(=O)N1CCC(c2nc3cc(-c4ccc(-c5nnn[nH]5)c(F)c4)ccc3o2)CC1` showed a melting point of 163 to 167 °C.
Work on `CN(C)CCCC1CCCCN1C(=O)N1c2ccccc2C(=O)Nc2cccnc21` (centres undefined) yielded a melting point of 142 to 144 °C.
`O=S(=O)(CC(O)(CBr)c1cccc(F)c1)c1ccccc1Cl` (centres undefined) showed a melting point of 121 °C.
With `CC1=C(C(=O)OC(C)C)C(c2cccc([N+](=O)[O-])c2)n2c(cc(=O)n2C(=O)OC(C)C)N1` (centres undefined) the melting point was 162 to 164 °C.
For `CC(=O)Nc1nc2cnccc2s1`, the melting point was greater than 212 °C.
`Cc1nc(-c2ccc(C(F)(F)F)cc2)sc1Sc1ccc(Cc2nn[nH]n2)cc1` gave a melting point of 177 °C.
In the case of `CCN(CC)CCCC1CCCN(C(=O)N2c3ccccc3NC(=O)c3csc(C)c32)C1` (centres undefined), the melting point is reported as 136 to 138 °C.
`CS(=O)(=O)c1ccccc1S` gave a melting point of 57 °C.
In the case of `CCn1ncc2c(NCC3CCCCC3)c3cccc(Br)c3nc21`, the melting point is reported as 160 to 162 °C.
With `Cc1c(N2CCC(N(C)C)C(C)C2)c(F)cc2c(=O)c(C(=O)O)cn(C3CC3)c12` (centres undefined) the melting point was 221 °C.
For `CS(=O)c1nc(-c2ccc([N+](=O)[O-])cc2)c[nH]1` (centres undefined), the melting point was 220 to 222 °C.
`NC(=O)CCCCCNC(N)=O` showed a melting point of 208 °C.
In the case of `CCCOCCOc1ccc(OCC(O)CNCCNC(N)=O)cc1` (centres undefined), the melting point is reported as 115 °C.
In the case of `COC(=O)C(c1ccc(-c2ccccc2F)cc1)S(C)=O` (centres undefined), the melting point is reported as 79 to 80 °C.
`C#CC1(O)C(C)CC2(CC1(C)C)OC(C)C(C)O2` (centres undefined) gave a melting point of 79 to 83 °C.
With `Clc1ccc(-c2ccn3nccc3n2)cc1` the melting point was 178 to 180 °C.
`OCC1OC(n2cnc3c(Nc4ccccc4)cc(Cl)nc32)C(O)C1O` (centres undefined) showed a melting point of 157 to 160 °C.
